Test results: US6391549B1, “Monitoring gene expression” (Ramont University Authority for Applied Research & …, priority 1999, dated 2002)

Columns and labels:
[1] = test system: E. coli K10 cultures (lacZ expression); assay: on-line amperometric monitoring of lacZ product β-galactosidase in intact bacteria after IPTG induction; format: cell-based
Experimental: Bacterial strains and growth. E. coli K-12 strain K10 (Hfr, tonA22, ompF626, relA1, pit10, spoT1, T2^R CGSC [Coli Genetic Stot Center, New Haven, Conn.] 4234) was from the lab collection, Strains E. coli RO151 (MC4100 φ(csi-5::lacZ) and E. coli RH99 (RO151 rpoS359::Tn10) were described before (Weichart et. al., 1993). All cultures were grown aerobically at 37° C. with vigorous shaking in LB media (Miler, 1992), supplemented, when required, with 5 μg/ml of tetracycline or 25 μg/ml of kanamycin.
An on-line electroanalytical assay for β-galactosidase was used where the enzymatic activity was determined following induction with IPTG. Increasing concentrations of the inducer were added to cultures of E. coli K10 (Annette & Anthony, 1987) and the current signal was monitored on-line in all the cultures simultaneously (FIG. 3A).

[2] = test system: E. coil k-12 7118 carrying pUC-PhoA plasmid (lacZ promoter-phoA); assay: on-line amperometric monitoring of phoA product alkaline phosphatase under lacZ promoter in intact bacteria; format: cell-based, E. coli; settings: IPTG 0, 0.1 mM and 1 mM, FIG. 10
Description: The expression of the enzyme AP was done by constructing a multicopy plasmid. For the construction of the plasmid, we coupled a promoter-less phoA gene to the promoter of the lacZ gene. The use of multicopy plasmid as a vector for induciable genes requires a strong repressing system to prevent constitutive expression. Therefore we used a plasmid that cares the lacI^q gene coding for a lacZ strong repressor. The plasmid was designed to generate the correct fusion between the lacZ promoter and the phoA gene. The bacteria carrying this plasmid can be immobilized and used to monitor AP by electrochemical measurements of it's activity. After the construction of the plasmid, we measured AP activity of a cell suspension in response to the appearance of IPTG.
Strain E. coil k-12 7118[F′ lacI^qΔ(lacZ)M15 proA+B+/Δ(lac-proAB) thi supE]was used for all cloning procedures, plasmid propagation and production. AP production of cells carrying the pUC-PhoA plasmid was measured on-line by the electroanalytical technique that was used for β-galactosidase as described in example 2. As shown in FIG. 10 the enzymatic activity was determined following induction with elevated concentrations of IPTG (0, 1 mM and 0.1 mM).

[3] = test system: heavy metal responsive promoter-lacZ fusion in E coli K12 MC4100; assay: on-line amperometric monitoring of heavy metals with bacteria carrying heavy metal responsive promoter fused to lacZ; format: cell-based; settings: CdCl2 5, 10 and 50 PPM added to culture, FIG. 5
Experimental: An on-line electroanlytical assays for β-galactosidase was used to monitor on-line the presence of heavy metals. The expression of the reporter gene β-galactosidase that was fused to a heavy metal responsive gene was proportional to the heavy metal concentration. We were able to monitor eight different samples simultaneously using a disposable electrodes.
(§1) The on-line monitoring procedure was performed as followed:
a. The bacteria culture was grown on LB medium to a density of 40 K.U.
b. The culture was added to the multiple-cell device followed by the addition of the β-galactosidase substrate p-aminophenyl-b-D-galactopyranoside (PAPG).
c. A potential of 220 mV Vs Ag/AgCl reference electrode was applied by the electrochemical measurement system and electroanalytical assay for β-galactosidase was carried out as described in Example 4.
The current signal was monitored simultaneously in all the cultures.

[4] = test system: heavy metal responsive promoter-lacZ fusion in E coli K12 MC4100; assay: on-line monitoring of cadmium in soil samples with the reporter bacteria; format: cell-based
Experimental: as §1
The same assay procedure was used to detect cadmium in soil samples. The soil was added directly to the screen-printed based electrochemical cells containing the bacteria culture as described above. Eight soil samples were monitored simultaneously by the system. The results as visualized on the computer screen are shown on FIG. 6A., Two duplicates of soil sample containing 3.8 PPM cadmium (measured by the Atomic absorption method) were compared with two duplicates of clean soil samples.

[5] = test system: heavy metal responsive promoter-lacZ fusion in E coli K12 MC4100; settings: HgCl2 10, 50, 100 and 500 PPM added to sea-water, FIG. 7
Experimental: Electrochemical measurements was performed using a disposable three-electrode cell made of polystyrene tubes and based on a screen-printed electrode (total volume of 0.3 ml). The assay was performed directly in the electrochemical cells that was vibrated to achieve mixing. This system allows simultaneous measurements of eight samples using a potentiostat connected to 8 channel multiplexer. The electrical current, resulting in all 8 cultures, from the activity of β-galactosidase, was visualized in real time on the computer screen. The on-line monitoring procedure was performed as followed:
The game procedure as described on Example 4 was used to monitor mercury in water and sea water samples.

β-galactosidase = β-galactosidase (Escherichia coli, UniProt P00722); settings: purified enzyme, PAPG substrate, 220 mV
Sequence of β-galactosidase (P00722 2-1024 limits assumed): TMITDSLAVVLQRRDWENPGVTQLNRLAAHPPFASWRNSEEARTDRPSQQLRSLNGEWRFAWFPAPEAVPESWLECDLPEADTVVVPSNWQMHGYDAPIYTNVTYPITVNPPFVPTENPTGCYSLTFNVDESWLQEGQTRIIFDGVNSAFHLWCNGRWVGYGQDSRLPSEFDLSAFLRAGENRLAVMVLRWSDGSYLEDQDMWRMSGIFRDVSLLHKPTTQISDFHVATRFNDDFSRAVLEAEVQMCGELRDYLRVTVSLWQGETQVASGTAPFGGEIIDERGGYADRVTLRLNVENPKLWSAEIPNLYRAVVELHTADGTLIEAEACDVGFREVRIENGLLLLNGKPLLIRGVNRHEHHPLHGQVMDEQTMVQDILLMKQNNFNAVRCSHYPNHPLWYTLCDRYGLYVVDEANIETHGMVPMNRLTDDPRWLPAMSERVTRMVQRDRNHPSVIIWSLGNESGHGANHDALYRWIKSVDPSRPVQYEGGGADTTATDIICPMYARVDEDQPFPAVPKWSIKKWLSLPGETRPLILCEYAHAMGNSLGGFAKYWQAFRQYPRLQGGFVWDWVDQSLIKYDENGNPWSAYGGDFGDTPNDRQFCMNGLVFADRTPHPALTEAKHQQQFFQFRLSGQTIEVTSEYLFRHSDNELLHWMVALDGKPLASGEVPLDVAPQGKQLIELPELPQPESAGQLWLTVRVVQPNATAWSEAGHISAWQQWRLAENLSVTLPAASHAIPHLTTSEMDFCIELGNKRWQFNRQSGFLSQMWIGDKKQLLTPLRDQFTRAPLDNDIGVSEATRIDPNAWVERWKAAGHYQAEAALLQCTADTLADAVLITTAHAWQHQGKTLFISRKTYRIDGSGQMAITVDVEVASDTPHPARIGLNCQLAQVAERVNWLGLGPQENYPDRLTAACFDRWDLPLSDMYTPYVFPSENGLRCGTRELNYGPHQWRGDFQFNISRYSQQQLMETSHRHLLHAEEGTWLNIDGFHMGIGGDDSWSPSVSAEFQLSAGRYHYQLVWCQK
Experimental: The amperometric assay. Electrochemical measurements were performed using a disposable three-electrode cell, based on a screen-printed electrode (total volume of 0.3 ml). […] Graphite ink was used as the counter electrode and Ag/AgCl ink were the reference electrodes. Disposable graphite electrodes in cylindrical form (made from pencil leads, HB 0.9 mm) were used as the working electrodes. The assay was performed directly in the electrochemical cells which were vibrated to achieve mixing. The same screen-printed electrodes and graphite working electrode were also used for direct measurements in cultures. In this case the electrodes were placed inside the Erlenmeyer flask as shown in FIG. 1 and mixing was achieved by bubbling air. The graphite electrode was held at 220 mV versus the reference electrode and the substrate PAPG concentration was 0.4 mg/ml.
The electrochemical measurements were performed using a PAR VersaStat potentiostat connected to 8 channel PAR 314 Model multiplexer (EG&C Princeton Applied Research, Princeton, N.J.). This system allows simultaneous measurements of eight samples with disposable electrochemical cells. The measurements were controlled by a LAbVIEW-based software using a Windows 95 operating system. […]

CC(C)S[C@@H]1O[C@H](CO)[C@H](O)[C@H](O)[C@H]1O [IPTG, isopropyl-β-D-thiogalactopyranoside]
lowest IPTG concentration from which the slope was proportional ([1]; E. coli K10, FIG. 3B): ≥ 0.5 µM
slope of the current signals with time (β-galactosidase induction) ([1]; E. coli K10, IPTG 0.5-50 μM, FIG. 3B): proportional to the concentrations of IPTG added
current signals (alkaline phosphatase activity after induction) [2]: proportional to IPTG concentations

[Cl][Cd][Cl] [cadmium, CdCl2]
slope of the current signals with time (reporter induction) [3]: proportional to the concentrations of cadmium added
current signals versus clean soil samples ([4]; soil sample containing 3.8 PPM cadmium, FIG. 6): substantially higher
lowest cadmium concentration detected in soil samples ([4]; soil samples, average of several experiments, FIG. 6B): 0.5 PPM

HgCl2
current signal (reporter induction) [5]: proportional to the mercury concentrations

β-D-galactoside galatohydrolase; EC 3.2.1.23 [β-galactosidase]
detection limit (β-galactosidase): 1 unit/ml
